Measured values published in ChEMBL document CHEMBL5143714, “Discovery of BMS-986339, a Pharmacologically Differentiated Farnesoid X Receptor Agonist for the Treatment of Nonalcoholic Steatohepatitis” (J Med Chem, 2022).
pEC50: −log10 of the molar value.

What was measured:
[1] = Metabolic stability in mouse liver microsome assessed as parent compound remaining at 1 mg/mL measured after 10 mins; format: ADME; conditions: liver microsomes, read-out: Stability
[2] = Metabolic stability in rat liver microsome assessed as parent compound remaining at 1 mg/mL measured after 10 mins; format: ADME; conditions: liver microsomes, read-out: Stability
[3] = Metabolic stability in human liver microsome assessed as parent compound remaining at 1 mg/mL measured after 10 mins; format: ADME; conditions: liver microsomes, read-out: Stability
[4] = target: T1, Bile acid receptor (Homo sapiens) (UniProt Q96RI1); experiment: Agonist activity at LBD-fused human FXR in HEK293 cells incubated for 30 min by envision plate reader method relative to GW2064; format: cell-based
T1 sequence (whole entry): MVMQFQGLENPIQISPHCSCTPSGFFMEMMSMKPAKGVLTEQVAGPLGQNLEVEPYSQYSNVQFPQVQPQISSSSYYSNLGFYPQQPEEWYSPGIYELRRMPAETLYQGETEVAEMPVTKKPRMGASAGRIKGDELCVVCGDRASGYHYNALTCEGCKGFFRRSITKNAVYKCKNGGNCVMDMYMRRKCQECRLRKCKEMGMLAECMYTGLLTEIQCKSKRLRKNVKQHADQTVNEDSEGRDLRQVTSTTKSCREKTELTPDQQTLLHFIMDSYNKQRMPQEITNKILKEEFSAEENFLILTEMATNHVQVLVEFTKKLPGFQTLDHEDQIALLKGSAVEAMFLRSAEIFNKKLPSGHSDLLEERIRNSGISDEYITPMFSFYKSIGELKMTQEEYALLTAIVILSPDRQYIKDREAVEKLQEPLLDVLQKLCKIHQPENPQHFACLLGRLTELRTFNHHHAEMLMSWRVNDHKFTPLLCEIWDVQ

[5] = target: T2, Bile acid receptor (Mus musculus) (UniProt Q60641); experiment: Agonist activity at LBD-fused mouse FXR in HEK293 cells incubated for 30 min by envision plate reader method relative to GW2064; format: cell-based; conditions: filed as agonist
T2 sequence (whole entry): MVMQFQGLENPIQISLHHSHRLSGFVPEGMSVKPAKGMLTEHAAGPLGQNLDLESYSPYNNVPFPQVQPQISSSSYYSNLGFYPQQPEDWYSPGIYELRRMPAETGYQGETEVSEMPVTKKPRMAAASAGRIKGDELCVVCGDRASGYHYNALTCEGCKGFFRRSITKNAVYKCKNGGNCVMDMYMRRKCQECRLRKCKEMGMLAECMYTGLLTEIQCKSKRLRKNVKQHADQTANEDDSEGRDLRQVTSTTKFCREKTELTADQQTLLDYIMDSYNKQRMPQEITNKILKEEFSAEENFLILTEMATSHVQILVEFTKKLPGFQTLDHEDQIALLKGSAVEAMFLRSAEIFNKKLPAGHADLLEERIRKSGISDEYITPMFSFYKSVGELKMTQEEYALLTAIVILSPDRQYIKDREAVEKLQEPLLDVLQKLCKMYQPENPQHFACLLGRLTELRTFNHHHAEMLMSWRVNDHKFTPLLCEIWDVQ

[6] = target: T3, Bile acid receptor (Homo sapiens, UniProt Q96RI1); experiment: Agonist activity at Gal4-fused human FXR in HEK293 cells incubated for 15 min by luciferase reporter assay; format: cell-based
T3 sequence (Q96RI1 whole entry): T1 sequence (whole entry)

[7] = system: Bile acid receptor (Homo sapiens); experiment: Agonist activity at human FXR expressed in HEK293 cells coexpressing IBABP relative to GW2064; conditions: filed as agonist
[8] = system: Bile acid receptor (Homo sapiens); experiment: Agonist activity at human FXR expressed in HEK293 cells coexpressing human FGF19 incubated for 24 hrs by ELISA analysis relative to GW2064
[9] = target: T4, Bile acid receptor (Mus musculus, UniProt Q60641); experiment: Agonist activity at mouse LBD fused FXR in HEK293 cells incubated for 30 min by envision plate reader method; format: cell-based
T4 sequence (Q60641 whole entry): T2 sequence (whole entry)

remaining at 10 min [1] | remaining at 10 min, 1 mg/mL [2] | remaining at 10 min [3] | Emax [4] | Emax [5] | pEC50 [6] | Emax [7] | Emax [8] | pEC50 [9] | SMILES
77% | 32% | 90% | 30% | 279% | 7.18 | 42% | 24% | – | COC(=O)/C=C/c1cccc(N(CC23CCC(c4ccc(N(C)C)cc4)(CC2)CC3)C(=O)C2CCCCC2)c1
– | – | – | – | – | – | – | – | 6.49 | O=C(O)c1cc(C(F)(F)F)c2cc(N3CCC4(C=C(c5c(-c6c(Cl)cncc6Cl)noc5C5CC5)C4)CC3)ccc2n1
